Here are results for 27 molecules from patent US20080114007A1 (priority 2006, published 2008).

pIC50: −log10 of the molar value.

The first assay deals with CSF-1R (Homo sapiens, UniProt P07333). Nature of the assay: Peptide (non-phosphorylated) assay, fluorescence polarization competition immunoassay. Type of assay: biochemical. The conditions noted are these: 0.7 nM CSF-1R, 308 μM SYEGNSYTFIDPTQ peptide, 1 mM ATP, 80 min; mean of at least three determinations; read-out: c-fms Peptide IC50. An outline of the steps: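 Read-out is fluorescence polarization: after EDTA quench, anti-phosphotyrosine antibody plus PTK green tracer compete with the phosphorylated peptide for 30 min. The CSF-1R reaction itself ran 80 min at room temperature after ATP addition. DMSO (4%) wells served as controls, positive controls pre-treated with EDTA.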
CSF-1R, sequence (P07333 20-972): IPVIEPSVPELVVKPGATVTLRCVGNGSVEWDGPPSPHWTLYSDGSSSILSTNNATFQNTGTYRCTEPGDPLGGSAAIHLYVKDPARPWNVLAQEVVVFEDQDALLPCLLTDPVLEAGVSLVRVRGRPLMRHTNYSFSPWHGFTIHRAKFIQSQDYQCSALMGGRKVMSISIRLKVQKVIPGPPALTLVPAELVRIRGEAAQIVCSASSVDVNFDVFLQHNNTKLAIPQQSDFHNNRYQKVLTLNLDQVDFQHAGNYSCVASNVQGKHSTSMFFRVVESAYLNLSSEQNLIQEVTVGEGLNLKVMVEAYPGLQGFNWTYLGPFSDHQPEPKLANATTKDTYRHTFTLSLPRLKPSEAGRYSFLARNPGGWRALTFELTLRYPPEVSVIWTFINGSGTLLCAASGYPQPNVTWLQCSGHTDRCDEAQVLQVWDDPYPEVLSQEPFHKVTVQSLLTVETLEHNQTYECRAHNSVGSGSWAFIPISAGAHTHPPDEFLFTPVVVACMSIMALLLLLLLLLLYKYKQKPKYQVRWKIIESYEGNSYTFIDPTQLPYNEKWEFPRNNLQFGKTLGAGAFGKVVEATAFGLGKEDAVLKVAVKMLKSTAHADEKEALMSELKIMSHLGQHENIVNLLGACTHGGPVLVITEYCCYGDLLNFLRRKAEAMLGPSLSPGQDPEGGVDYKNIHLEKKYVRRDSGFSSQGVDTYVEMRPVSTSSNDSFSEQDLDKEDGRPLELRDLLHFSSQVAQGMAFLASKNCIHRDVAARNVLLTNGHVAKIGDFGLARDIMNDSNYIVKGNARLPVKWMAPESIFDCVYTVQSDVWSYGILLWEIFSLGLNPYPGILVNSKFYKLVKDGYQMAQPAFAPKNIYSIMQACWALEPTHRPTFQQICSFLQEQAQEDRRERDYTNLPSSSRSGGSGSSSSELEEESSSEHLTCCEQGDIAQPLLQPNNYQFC
By pIC50 is commonly meant the negative decadic logarithm of the IC50, by convention in mol/L. As to `CONC(=O)c1cn(-c2ccc3c(c2)CCC3)c2nc(Nc3ccc(CCN4CCC(F)(F)C4)cc3)ncc2c1=O` [Cpd 241, 2-{4-[2-(3,3-difluoro-pyrrolidin-1-yl)-ethyl]-phenylamino}-8-indan-5-yl-5-oxo-5,8-dihydro-pyrido[2,3-d]pyrimidine-6-carboxylic acid methoxy-amide], the pIC50 was 8.77. On the same count and under the same terms, then `COCCc1ccc(Nc2ncc3c(=O)c(C(=O)NOC)cn(-c4ccc5c(c4)CCC5)c3n2)cc1` [Cpd 81, 8-indan-5-yl-2-[4-(2-methoxy-ethyl)-phenylamino]-5-oxo-5,8-dihydro-pyrido[2,3-d]pyrimidine-6-carboxylic acid methoxy-amide], with 8.52; and `CONC(=O)c1cn(-c2ccc3c(c2)CCC3)c2nc(Nc3cccc(C4(O)CCCNC4)c3)ncc2c1=O` (stereo not drawn) [Cpd 275, 2-[3-(3-hydroxy-piperidin-3-yl)-phenylamino]-8-indan-5-yl-5-oxo-5,8-dihydro-pyrido[2,3-d]pyrimidine-6-carboxylic acid methoxy-amide], with 9.18. Still for that read-out and setting: then `CONC(=O)c1cn(-c2ccc3c(c2)CCC3)c2nc(Nc3ccc(C4CCN(CCO)CC4)cc3)ncc2c1=O` [Cpd 88, 2-{4-[1-(2-hydroxy-ethyl)-piperidin-4-yl]-phenylamino}-8-indan-5-yl-5-oxo-5,8-dihydro-pyrido[2,3-d]pyrimidine-6-carboxylic acid methoxy-amide], with 8.89; and `CONC(=O)c1cn(-c2ccc3c(c2)CCC3)c2nc(Nc3cccc(CCN4CCN(C(C)=O)CC4)c3)ncc2c1=O` [Cpd 204, 2-{3-[2-(4-acetyl-piperazin-1-yl)-ethyl]-phenylamino}-8-indan-5-yl-5-oxo-5,8-dihydro-pyrido[2,3-d]pyrimidine-6-carboxylic acid methoxy-amide], with 8.92; and `CCc1ccc(-n2cc(C(=O)NOC)c(=O)c3cnc(Nc4cccc(OC5CN6CCC5CC6)c4)nc32)cc1` (stereo not drawn) [Cpd 247, 2-[3-(1-aza-bicyclo[2.2.2]oct-3-yloxy)-phenylamino]-8-(4-ethyl-phenyl)-5-oxo-5,8-dihydro-pyrido[2,3-d]pyrimidine-6-carboxylic acid methoxy-amide], with 9.23.

With `CONC(=O)c1cn(-c2ccc3c(c2)CCC3)c2nc(Nc3ccc(CCN4CCC[C@@H]4C(=O)O)cc3)ncc2c1=O` [Cpd 109, (R)-1-{2-[4-(8-indan-5-yl-6-methoxycarbamoyl-5-oxo-5,8-dihydro-pyrido[2,3-d]pyrimidin-2-ylamino)-phenyl]-ethyl}-pyrrolidine-2-carboxylic acid], the pIC50 was 8.96. The same measure, in the same setting: then `CNS(=O)(=O)CCc1ccc(Nc2ncc3c(=O)c(C(=O)NOC)cn(-c4ccc5c(c4)CCC5)c3n2)cc1` [Cpd 89, 8-indan-5-yl-2-[4-(2-methylsulfamoyl-ethyl)-phenylamino]-5-oxo-5,8-dihydro-pyrido[2,3-d]pyrimidine-6-carboxylic acid methoxy-amide], with 8.85; and `O=C(NCCO)c1cn(C2CCCC2)c2nc(Nc3ccc(CCN4CCCC4)cc3)ncc2c1=O` [Cpd 43, 8-cyclopentyl-5-oxo-2-[4-(2-pyrrolidin-1-yl-ethyl)-phenylamino]-5,8-dihydro-pyrido[2,3-d]pyrimidine-6-carboxylic acid (2-hydroxy-ethyl)-amide], with 7.51. In the case of `CONC(=O)c1cn(C2CCCC2)c2nc(Nc3ccc(CCN4CCN(C)CC4)cc3)ncc2c1=O` [Cpd 48, 8-cyclopentyl-2-{4-[2-(4-methyl-piperazin-1-yl)-ethyl]-phenylamino}-5-oxo-5,8-dihydro-pyrido[2,3-d]pyrimidine-6-carboxylic acid methoxy-amide], the pIC50 is 8.82.

Take `CONC(=O)c1cn(-c2ccc3c(c2)CCC3)c2nc(Nc3ccc4c(ccn4C)c3)ncc2c1=O` [Cpd 291, 8-indan-5-yl-2-(1-methyl-1H-indol-5-ylamino)-5-oxo-5,8-dihydro-pyrido[2,3-d]pyrimidine-6-carboxylic acid methoxy-amide]: the pIC50 was 8.89. Same read-out and setting: then `CONC(=O)c1cn(-c2ccc3c(c2)CCC3)c2nc(Nc3ccc(CCN4CCN(C(=O)OC)CC4)cc3)ncc2c1=O` [Cpd 150, 4-{2-[4-(8-indan-5-yl-6-methoxycarbamoyl-5-oxo-5,8-dihydro-pyrido[2,3-d]pyrimidin-2-ylamino)-phenyl]-ethyl}-piperazine-1-carboxylic acid methyl ester], with 9.12; and `CONC(=O)c1cn(-c2ccc(C)c(C)c2)c2nc(Nc3ccc(CCN4CCN(C)CC4)cc3)ncc2c1=O` [Cpd 52, 8-(3,4-dimethyl-phenyl)-2-{4-[2-(4-methyl-piperazin-1-yl)-ethyl]-phenylamino}-5-oxo-5,8-dihydro-pyrido[2,3-d]pyrimidine-6-carboxylic acid methoxy-amide], with 9.10; and `CONC(=O)c1cn(-c2ccc3c(c2)CCC3)c2nc(Nc3cccc(CCN4CCN(S(C)(=O)=O)CC4)c3)ncc2c1=O` [Cpd 203, 8-indan-5-yl-2-{3-[2-(4-methanesulfonyl-piperazin-1-yl)-ethyl]-phenylamino}-5-oxo-5,8-dihydro-pyrido[2,3-d]pyrimidine-6-carboxylic acid methoxy-amide], with 8.85.

For the molecule `CONC(=O)c1cn(-c2ccc3c(c2)CCC3)c2nc(Nc3ccc(CCN4CCCC4=O)cc3)ncc2c1=O` [Cpd 134, 8-indan-5-yl-5-oxo-2-{4-[2-(2-oxo-pyrrolidin-1-yl)-ethyl]-phenylamino}-5,8-dihydro-pyrido[2,3-d]pyrimidine-6-carboxylic acid methoxy-amide], the pIC50 was 8.17. On to `CCONC(=O)c1cn(C2CCCCC2)c2nc(Nc3ccc(CCN4CCOCC4)cc3)ncc2c1=O` [Cpd 21, 8-cyclohexyl-2-[4-(2-morpholin-4-yl-ethyl)-phenylamino]-5-oxo-5,8-dihydro-pyrido[2,3-d]pyrimidine-6-carboxylic acid ethoxy-amide], for which the pIC50 is 9.00. The same measure, in the same setting: then `CCc1ccc(-n2cc(C(=O)NOC)c(=O)c3cnc(Nc4cccc(OC5CCN(CC)CC5)c4)nc32)cc1` [Cpd 322, 8-(4-ethyl-phenyl)-2-[3-(1-ethyl-piperidin-4-yloxy)-phenylamino]-5-oxo-5,8-dihydro-pyrido[2,3-d]pyrimidine-6-carboxylic acid methoxy-amide], with 9.10; and `CCc1ccc(-n2cc(C(=O)NOC(C)C)c(=O)c3cnc(Nc4ccc(C5CCN(CCCO)CC5)cc4)nc32)cc1` [Cpd 187, 8-(4-ethyl-phenyl)-2-{4-[1-(3-hydroxy-propyl)-piperidin-4-yl]-phenylamino}-5-oxo-5,8-dihydro-pyrido[2,3-d]pyrimidine-6-carboxylic acid isopropoxy-amide], with 9.15; and `CONC(=O)c1cn(C2CCCC2)c2nc(Nc3ccc(N4CCCC4)cc3)ncc2c1=O` [Cpd 35, 8-cyclopentyl-5-oxo-2-(4-pyrrolidin-1-yl-phenylamino)-5,8-dihydro-pyrido[2,3-d]pyrimidine-6-carboxylic acid methoxy-amide], with 8.66. For the molecule `CCc1ccc(-n2cc(C(=O)NOC(CC)CC)c(=O)c3cnc(Nc4ccc(CCN5CCN(C)CC5)cc4)nc32)cc1` [Cpd 93, 8-(4-ethyl-phenyl)-2-{4-[2-(4-methyl-piperazin-1-yl)-ethyl]-phenylamino}-5-oxo-5,8-dihydro-pyrido[2,3-d]pyrimidine-6-carboxylic acid (1-ethyl-propoxy)-amide], the pIC50 is 8.31. Still for that read-out and setting: the same measure for `CONC(=O)c1cn(-c2ccc3c(c2)CCC3)c2nc(Nc3ccc(Cc4nnn[nH]4)cc3)ncc2c1=O` [Cpd 91, 8-indan-5-yl-5-oxo-2-[4-(1H-tetrazol-5-ylmethyl)-phenylamino]-5,8-dihydro-pyrido[2,3-d]pyrimidine-6-carboxylic acid methoxy-amide]: 8.70; for `CCc1ccc(-n2cc(C(=O)NOC)c(=O)c3cnc(Nc4ccc(OC5CN6CCC5CC6)cc4)nc32)cc1` (stereo not drawn) [Cpd 268, 2-[4-(1-aza-bicyclo[2.2.2]oct-3-yloxy)-phenylamino]-8-(4-ethyl-phenyl)-5-oxo-5,8-dihydro-pyrido[2,3-d]pyrimidine-6-carboxylic acid methoxy-amide]: 9.40.

Turning to `CCc1ccc(-n2cc(C(=O)NOC(C)C)c(=O)c3cnc(Nc4ccc(C5CCNCC5)cc4)nc32)cc1` [Cpd 58, 8-(4-ethyl-phenyl)-5-oxo-2-(4-piperidin-4-yl-phenylamino)-5,8-dihydro-pyrido[2,3-d]pyrimidine-6-carboxylic acid isopropoxy-amide], the pIC50 is 8.80. The same measure, in the same setting: then `CCONC(=O)c1cn(-c2ccc(CC)cc2)c2nc(Nc3ccc(C4CCN(CCCO)CC4)cc3)ncc2c1=O` [Cpd 186, 8-(4-ethyl-phenyl)-2-{4-[1-(3-hydroxy-propyl)-piperidin-4-yl]-phenylamino}-5-oxo-5,8-dihydro-pyrido[2,3-d]pyrimidine-6-carboxylic acid ethoxy-amide], with 9.22. Same read-out and setting: the same measure for `CONC(=O)c1cn(-c2ccc3c(c2)CCC3)c2nc(Nc3cccc(-n4cncn4)c3)ncc2c1=O` [Cpd 174, 8-indan-5-yl-5-oxo-2-(3-[1,2,4]triazol-1-yl-phenylamino)-5,8-dihydro-pyrido[2,3-d]pyrimidine-6-carboxylic acid methoxy-amide]: 8.68.

For `CONC(=O)c1cn(-c2ccc3c(c2)C=CC3)c2nc(Nc3ccc(C4CCN(C)CC4)cc3)ncc2c1=O` [Cpd 259, 8-(1H-inden-5-yl)-2-[4-(1-methyl-piperidin-4-yl)-phenylamino]-5-oxo-5,8-dihydro-pyrido[2,3-d]pyrimidine-6-carboxylic acid methoxy-amide], the negative logarithm of the IC50 (pIC50) is 9.15.

The same assay, now with this note: c-fms Peptide IC50, 0.7 nM CSF-1R, 308 μM SYEGNSYTFIDPTQ peptide, 1 mM ATP, 80 min; mean of at least three determinations.
`CONC(=O)c1cn(-c2ccc3c(c2)CCC3)c2nc(Nc3ccc(CCS(=O)(=O)NC(C)=O)cc3)ncc2c1=O` [Cpd 90, 2-[4-(2-acetylsulfamoyl-ethyl)-phenylamino]-8-indan-5-yl-5-oxo-5,8-dihydro-pyrido[2,3-d]pyrimidine-6-carboxylic acid methoxy-amide]: the pIC50 is 8.62.
